Test results reported in paper doi:10.1101/2023.11.24.568596v1 (biorxiv, 2023).
Values belong to the molecule of their own block, whether it stands above or below them.

Experiments:
Conditions in all cases: binder
[1] = target: T1, CASK (Homo sapiens, UniProt O14936)
T1 sequence (O14936 1-926): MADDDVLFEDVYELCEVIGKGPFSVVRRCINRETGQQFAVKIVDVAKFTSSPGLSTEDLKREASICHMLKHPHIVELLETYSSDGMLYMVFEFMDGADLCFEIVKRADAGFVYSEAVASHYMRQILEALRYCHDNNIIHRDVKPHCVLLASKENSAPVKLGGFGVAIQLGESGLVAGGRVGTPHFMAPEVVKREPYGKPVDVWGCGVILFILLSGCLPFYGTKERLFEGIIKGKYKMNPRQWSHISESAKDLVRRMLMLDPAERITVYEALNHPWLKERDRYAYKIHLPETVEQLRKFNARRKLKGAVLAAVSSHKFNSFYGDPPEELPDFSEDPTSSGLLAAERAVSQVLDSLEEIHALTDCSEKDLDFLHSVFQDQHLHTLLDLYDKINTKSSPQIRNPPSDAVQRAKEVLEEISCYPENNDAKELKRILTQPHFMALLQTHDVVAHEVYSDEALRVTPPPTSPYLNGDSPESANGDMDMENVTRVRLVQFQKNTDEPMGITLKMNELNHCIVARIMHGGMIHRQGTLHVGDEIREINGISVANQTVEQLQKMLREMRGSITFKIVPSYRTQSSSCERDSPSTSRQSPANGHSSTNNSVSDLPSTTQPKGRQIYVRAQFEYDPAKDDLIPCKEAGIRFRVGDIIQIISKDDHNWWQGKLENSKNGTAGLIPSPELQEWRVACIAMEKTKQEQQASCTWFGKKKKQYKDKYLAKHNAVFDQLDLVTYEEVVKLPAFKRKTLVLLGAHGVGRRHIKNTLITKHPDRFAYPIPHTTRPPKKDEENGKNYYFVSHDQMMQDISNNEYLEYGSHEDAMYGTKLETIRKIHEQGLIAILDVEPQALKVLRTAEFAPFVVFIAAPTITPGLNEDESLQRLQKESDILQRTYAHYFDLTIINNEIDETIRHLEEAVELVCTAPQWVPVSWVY

[2] = target: T2, DMPK1 (Homo sapiens, UniProt Q09013)
T2 sequence (Q09013 1-629): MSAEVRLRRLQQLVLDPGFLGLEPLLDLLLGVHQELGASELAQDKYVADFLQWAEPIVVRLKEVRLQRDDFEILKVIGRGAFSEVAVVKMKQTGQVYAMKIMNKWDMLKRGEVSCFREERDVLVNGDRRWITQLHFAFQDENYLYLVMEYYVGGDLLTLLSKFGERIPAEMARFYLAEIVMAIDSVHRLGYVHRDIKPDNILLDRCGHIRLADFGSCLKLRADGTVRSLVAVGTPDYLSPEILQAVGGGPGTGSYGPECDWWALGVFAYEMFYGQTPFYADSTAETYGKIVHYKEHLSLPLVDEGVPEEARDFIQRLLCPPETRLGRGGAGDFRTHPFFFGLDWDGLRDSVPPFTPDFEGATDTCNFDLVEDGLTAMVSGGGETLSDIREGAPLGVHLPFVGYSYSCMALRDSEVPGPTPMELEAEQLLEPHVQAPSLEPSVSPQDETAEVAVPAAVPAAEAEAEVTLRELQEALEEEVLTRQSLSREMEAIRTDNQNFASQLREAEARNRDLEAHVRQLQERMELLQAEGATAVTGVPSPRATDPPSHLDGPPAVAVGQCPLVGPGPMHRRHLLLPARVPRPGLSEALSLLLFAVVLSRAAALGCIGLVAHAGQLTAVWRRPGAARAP

[3] = target: MAPKAPK2 (Homo sapiens, UniProt P49137)
Chain of MAPKAPK2 (P49137 whole entry): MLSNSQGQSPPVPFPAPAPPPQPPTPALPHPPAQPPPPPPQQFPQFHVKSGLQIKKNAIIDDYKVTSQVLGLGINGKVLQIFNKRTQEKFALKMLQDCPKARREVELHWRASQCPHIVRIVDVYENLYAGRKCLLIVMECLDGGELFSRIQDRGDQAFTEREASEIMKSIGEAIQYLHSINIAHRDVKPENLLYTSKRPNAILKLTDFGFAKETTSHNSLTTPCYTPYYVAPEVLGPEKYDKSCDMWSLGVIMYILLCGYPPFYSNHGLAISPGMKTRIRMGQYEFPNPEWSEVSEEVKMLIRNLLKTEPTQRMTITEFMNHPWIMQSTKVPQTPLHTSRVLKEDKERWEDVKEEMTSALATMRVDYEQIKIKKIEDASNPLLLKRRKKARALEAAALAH

[4] = target: T3, BMX (Homo sapiens, UniProt P51813)
T3 sequence (P51813 1-675): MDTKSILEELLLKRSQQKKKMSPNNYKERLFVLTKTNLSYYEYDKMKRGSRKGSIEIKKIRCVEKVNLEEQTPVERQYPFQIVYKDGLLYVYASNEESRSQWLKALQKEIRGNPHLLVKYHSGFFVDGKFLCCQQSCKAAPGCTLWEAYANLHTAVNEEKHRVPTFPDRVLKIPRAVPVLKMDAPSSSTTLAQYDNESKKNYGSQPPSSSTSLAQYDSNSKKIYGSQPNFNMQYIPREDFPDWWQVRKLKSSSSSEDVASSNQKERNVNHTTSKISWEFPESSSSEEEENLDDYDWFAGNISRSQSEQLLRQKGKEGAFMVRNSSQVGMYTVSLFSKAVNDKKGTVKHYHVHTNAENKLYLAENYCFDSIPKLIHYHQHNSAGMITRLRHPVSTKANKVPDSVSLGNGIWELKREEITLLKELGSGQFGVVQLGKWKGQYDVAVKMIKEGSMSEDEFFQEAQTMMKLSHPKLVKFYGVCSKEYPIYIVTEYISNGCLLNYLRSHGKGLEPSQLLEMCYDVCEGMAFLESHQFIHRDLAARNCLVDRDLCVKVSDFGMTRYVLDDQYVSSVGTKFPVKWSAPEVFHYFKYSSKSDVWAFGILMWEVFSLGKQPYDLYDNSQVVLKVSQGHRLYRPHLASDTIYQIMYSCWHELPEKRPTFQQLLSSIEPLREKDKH

[5] = target: T4, MYT1 (Homo sapiens, UniProt Q99640)
T4 sequence (Q99640 1-499): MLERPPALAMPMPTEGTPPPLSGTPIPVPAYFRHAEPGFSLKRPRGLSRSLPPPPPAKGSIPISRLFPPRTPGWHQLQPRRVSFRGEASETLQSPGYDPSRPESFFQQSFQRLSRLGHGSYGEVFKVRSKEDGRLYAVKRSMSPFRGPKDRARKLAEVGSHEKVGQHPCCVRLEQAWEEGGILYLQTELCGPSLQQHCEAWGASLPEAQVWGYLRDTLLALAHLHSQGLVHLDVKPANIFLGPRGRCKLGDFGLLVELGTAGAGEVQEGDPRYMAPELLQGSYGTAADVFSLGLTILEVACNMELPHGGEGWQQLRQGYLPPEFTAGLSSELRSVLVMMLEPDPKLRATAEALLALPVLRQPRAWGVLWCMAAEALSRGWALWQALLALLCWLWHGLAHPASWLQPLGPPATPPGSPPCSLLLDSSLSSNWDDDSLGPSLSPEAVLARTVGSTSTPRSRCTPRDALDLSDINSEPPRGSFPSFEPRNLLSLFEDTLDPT

ΔTm MRLW5 (20) [1]: -0.5 °C
ΔTm MRLW5 (20) [2]: 0.8 °C
ΔTm MRLW5 (20) [3]: 0.0 °C
ΔTm MRLW5 (20) [4]: 3.1 °C
ΔTm MRLW5 (20) [5]: -1.0 °C
SMILES: CNc1ncc2cc(-c3ccc(-c4cccc(C)n4)cc3Cl)c(=O)n(CCCCN)c2n1 [compound 20, MRLW5]

ΔTm MR24 (24) [1]: -0.4 °C
ΔTm MR24 (24) [2]: -1.3 °C
ΔTm MR24 (24) [3]: -0.1 °C
ΔTm MR24 (24) [4]: 0.6 °C
ΔTm MR24 (24) [5]: -2.0 °C
SMILES: Cc1cccc(-c2ccc(-c3cc4cnc(NC(CO)CO)nc4n(CCCCN)c3=O)c(Cl)c2)n1 [compound 24, 8-(4-Aminobutyl)-6-(2-chloro-4-(6-methylpyridin-2-yl)phenyl)-2-((1,3-dihydroxypropan-2-yl)amino)pyrido[2,3-d]pyrimidin-7(8H)-one]

ΔTm 23 [1]: -0.4 °C
ΔTm 23 [2]: -2.8 °C
ΔTm 23 [3]: -0.9 °C
ΔTm 23 [4]: 3.4 °C
ΔTm 23 [5]: -0.9 °C
SMILES: CNc1ncc2cc(-c3ccc(-c4cccc(C)n4)cc3Cl)c(=O)n(C[C@H]3CC[C@H](N)CC3)c2n1 [compound 23, 23]

ΔTm 25 [1]: -0.4 °C
ΔTm 25 [2]: -2.7 °C
ΔTm 25 [3]: -0.6 °C
ΔTm 25 [4]: 3.1 °C
ΔTm 25 [5]: -2.3 °C
SMILES: Cc1cccc(-c2ccc(-c3cc4cnc(NCCCc5ccc(N)cc5)nc4n(CCCCN)c3=O)c(Cl)c2)n1 [compound 25, 8-(4-Aminobutyl)-2-((3-(4-aminophenyl)propyl)amino)-6-(2-chloro-4-(6-methylpyridin-2-yl)phenyl)pyrido[2,3-d]pyrimidin-7(8H)-one]

ΔTm MR26 (26) [1]: -0.3 °C
ΔTm MR26 (26) [2]: -1.3 °C
ΔTm MR26 (26) [3]: -0.2 °C
ΔTm MR26 (26) [4]: 2.4 °C
ΔTm MR26 (26) [5]: -1.1 °C
SMILES: Cc1cccc(-c2ccc(-c3cc4cnc(NCCCN5CCOCC5)nc4n(CCCCN)c3=O)c(Cl)c2)n1 [compound 26, MR26]

ΔTm 22 [1]: 0.3 °C
ΔTm 22 [2]: -1.7 °C
ΔTm 22 [3]: -0.1 °C
ΔTm 22 [4]: 4.1 °C
ΔTm 22 [5]: -4.0 °C
SMILES: CNc1ncc2cc(-c3ccc(-c4cccc(C)n4)cc3Cl)c(=O)n(CCC3CCNCC3)c2n1 [compound 22, 6-(2-Chloro-4-(6-methylpyridin-2-yl)phenyl)-2-(methylamino)-8-(2-(piperidin-4-yl)ethyl)pyrido[2,3-d]pyrimidin-7(8H)-one]
